{"source": "paper PMC4669759", "about": "(Cell Death & Disease, 2015)", "system": "H929 cells", "assay": "Cell viability, H929 cells", "type": "cell-based, human", "details": "H929, 48 h", "experimental": "Figure 4 Indole-2-carboxylic acids induce the hallmarks of apoptosis in MCL-1-dependent cancer cell line H929. (a) Digitonin-permeabilized H929 cells were treated with 10 μM BH3 peptides for 4 h, and intact H929 cells were incubated with increasing concentrations (0.1–10 μM) of A-1208746 for 4 h before assessing the levels of cytochrome c released into the cytosol. (b) H929 and RS4;11 cells were incubated with increasing concentrations of MCL-1 inhibitors or the BCL-2-selective inhibitor ABT-199 (venetoclax) for 48 h before determining cell viability. Cell killing IC50s are plotted with each value representing the mean of three separate experiments. Error bars represent the S.E.M. (c) H929 cells were incubated with increasing concentrations of MCL-1 inhibitors in the presence or absence of the pan-caspase inhibitor QVD (100 μM) for 4 h before assessing caspase-3/-7 activation, mitochondrial membrane polarization, and the exposure of phosphatidylserine. […]\nAdherent cell lines were seeded at 50 000 cells per well in 96-well plates and treated for 48 h with compounds diluted in half-log steps starting at 30 μM and ending at 0.001 μM. […] Effects on proliferation and viability were determined using CellTiter-Glo reagent from Promega (Madison, WI, USA) according to the manufacturer's instructions. IC50 values were determined by non-linear regression analysis of the concentration response data."}
{"smiles": "Cc1nn(C)c(COc2ccc(N3CCN(S(=O)(=O)N(C)C)CC3)cc2)c1-c1cccc2c(CCCOc3cccc4ccccc34)c(C(=O)O)n(CCN3CCOCC3)c12", "note": "[A-1210477]", "values": [{"measurement": "cell killing IC50", "result": "low-μM range"}]}
